Experimental data reported in patent US9878054B2, “Polypeptide and lipophilic moiety conjugate compositions, formulations, and uses related thereto” (Tufts Medical Center, Inc., priority 2012, dated 2018).
Where a SMILES comes first, the peptide text is derived from it. The star is where a group is joined. Palmitoyl = CCCCCCCCCCCCCCCC(=O)*

How the values were obtained:
human platelets (ADP) = assay: Human platelet aggregation, ADP; type: cell-based; details: 20 μM ADP
Protocol: (§1) A, Depiction of the mechanism of action of the cell-penetrating PZ-128 pepducin compound targeting the third intracellular loop (red) of PAR1. B, The NMR structure of PZ-128 was determined by simulated annealing methods using 210 distance restraints and included restraints to the proximal 3 hydrocarbons of the lipid. […] D, PZ-128 inhibits PAR1-dependent platelet aggregation. Gel filtered human platelets were treated with various concentrations of PZ-128 and then challenged with the PAR1 agonist SFLLRN (2.5 μM), 20 μM ADP, 200 μM AYPGKF or 1 mg/ml Ristocetin. E, Human platelets were treated with 3 μM PZ-128, 3 μM RWJ-56110, or 5% dextrose vehicle before the addition of various concentrations of thrombin (n=3-5).
(§2) PZ-128 also markedly right-shifted thrombin-induced aggregation by 5-fold. By comparison, the small molecule RWJ-56110 which antagonizes PAR1 at the extracellular ligand-binding site gave a 2-fold right shift in the thrombin activation curve of human platelets.
(§3) Whole blood from healthy donors was collected into a 30 ml syringe containing sodium citrate (0.4% vol/vol final). Platelets were isolated from platelet rich plasma (PRP) using Sepharose 2B columns in modified PIPES buffer.

[1] = Solubility of lyophilized PZ-128 after reconstitution (visual inspection); type: physicochemical
Protocol: Column recovered fractions containing PZ-128 ammonium salts were lyophilized by using the following procedure: 5 mL of elute from reverse phase column cartridge was place into a 15-mL vial; the sample frozen in dry ice-isopropanol bath for 5 minutes with swirling until completely frozen, the temperature should be about −35 to −45° C. and the vacuum pressure should be about 60-100×10^−3 mBar; frozen samples/vials are places in a 0.5-1 L lyophilization glass container; open the chamber to the vacuum pump where the vacuum pressure should rise and then come back to 100-200×10^−3 M Bar until drying is complete; and the sample is stored at −20° C. The product of the first PZ-128 lyophilization was dissolved in pure water and lyophilized a second time.
The different excipients listed in Table 1 were added to 10×500 μL aliquots of the fully soluble 1 mg/mL PZ-128 solution (product of the first lyophilization), mixed, froze, and lyophilization overnight. After lyophilization, the appearance of the dried lyophilizate was examined and the solubility determined after reconstitution with 100 μL water to 5 mg/mL PZ-128 salt product.
The appearances of each of the samples after a second lyophilization from water with the different excipients are listed in Table 1. […]

[2] = tested on: guinea pig carotid artery thrombosis; assay: Guinea pig carotid artery FeCl3 injury arterial thrombosis model; type: in vivo
Protocol: A carotid artery FeCl3 injury model was used in guinea pigs to assess the anti-thrombotic efficacy of PZ-128 micelles within 15 min of initiation of drug administration. FeCl3 denudes the artery and exposes type I collagen and other subendothelial matrix proteins to initiate platelet-dependent thrombosis. Guinea pigs received 10 min intravenous infusions of PZ-128 micelles, 5 min prior to carotid artery injury. […] Mean occlusion times increased by 4-fold to 40 min at doses above 0.05 mg/kg PZ-128.
Male Hartley guinea pigs (150˜220 g) were purchased from Charles River Laboratories. A 0.61 mm-diameter catheter was inserted into the left jugular vein of anesthetized animals for administration of infusions of 5% USP dextrose vehicle or PZ-128 micelles. A 0.5 V-Doppler probe (Transonic Systems, Ithaca, N.Y.) was placed around the right carotid artery to record blood flow. A range of doses of PZ-128 micelles from 0.05 to 1.6 mg/kg in 0.9 ml volumes were delivered at an injection rate of 0.09 ml/min by a Harvard syringe pump. Five minutes after the infusion ended, arterial thrombosis was induced by placing a 5×5 mm^2 piece of filter paper soaked in freshly made 20% FeCl3 solution on the right carotid artery 5 mm distal to the probe for 20 minutes. […] To examine possible synergistic effects of PZ-128 micelles and P2Y12-ADP receptor inhibition, 1 mg/kg clopidogrel was administered by oral gavage 4 hours prior to FeCl3 injury. In these synergy experiments, the maximum endpoint was set at 90 minutes for occlusion time.

[3] = tested on: human platelets (Ristocetin); assay: Human platelet aggregation, ristocetin; type: cell-based; details: 1 mg/ml Ristocetin
Protocol: as §1, §2, §3

[4] = PT, aPTT, bleeding and plasma levels in cynomolgus monkeys after daily iv infusions; type: in vivo; details: cynomolgus monkey
Protocol: PZ-128 micelles were also administered daily for 4 days to adult male and female cynomolgus monkeys with 1 h iv infusions of 3 mg/kg, 10 mg/kg and 30 mg/kg PZ-128. Coagulation parameters prothrombin time (PT) and activated partial thromboplastin time (aPTT) were unaffected in all monkeys at 3-30 mg/kg PZ-128 at either day 1 and day 5 as compared to baseline or vehicle-treated animals (Table 2).
PZ-128 micelles (0, 3, 10 or 30 mg/kg) were administered intravenously to 2.5-4.5 kg male and female cynomolgus monkeys by infusion over 1 h at MPI Laboratories (Mattawan, Mich.). Peripheral venous blood was collected from cynomolgus monkeys into K3EDTA anticoagulant at baseline (Day −8) and at two time points (Day 1 and Day 5) after daily 1-h intravenous PZ-128 micelle infusions on days 1-4. PT and aPTT were analyzed immediately on a MLA-800 coagulation analyzer.

[5] = 3-30 mg/kg, 1 h iv infusion daily for 4 days, day 1 and day 5

Solubility of product of second lyophilization from pure water ([1]; 5 mg/mL, tested formulations including 100% water): did not solubilize | Solubility of micelles after filtration and second lyophilization with ammonium acetate ([1]; 100% water and 5% dextrose/water at 5 mg/mL): readily soluble | Cmax ([4]; both sexes, plasma, up to 30 mg/kg iv infusion): > 200 µM | Activated partial thromboplastin time (aPTT) [4, 5]: unaffected | Prothrombin time (PT) [4, 5]: unaffected
Structure (SMILES): CCCCCCCCCCCCCCCC(=O)N[C@@H](CCCCN)C(=O)N[C@@H](CCCCN)C(=O)N[C@@H](CO)C(=O)N[C@@H](CCCNC(=N)N)C(=O)N[C@@H](C)C(=O)N[C@@H](CC(C)C)C(=O)N[C@@H](Cc1ccccc1)C(N)=O [PZ-128, palmitate-KKSRALF-NH2] (Palmitoyl-KKSRALF-NH2)
Inhibitory activity against ADP aggregation (human platelets (ADP)): no inhibitory activity | EC50, protection against arterial occlusion ([2]; 10 min iv infusion 5 min prior to FeCl3 carotid injury): 0.075 mg/kg | Increase of mean occlusion time ([2]; doses above 0.05 mg/kg): 4 fold | Mean occlusion time ([2]; doses above 0.05 mg/kg): 40 min | Protection against arterial occlusion when used alone ([2]; sub-therapeutic dose alone (PZ-128 0.05 mg/kg; clopidogrel 1 mg/kg PO)): non-significant protection | Inhibitory activity against ristocetin aggregation [3]: no inhibitory activity | Spontaneous, venous access, or retinal bleeding ([4]; 3-30 mg/kg daily iv): No spontaneous, venous access, or retinal bleeding was observed
